Counter-ions that a name gives are not always drawn.
Assay: Kinematic viscosity of shampoo base formulation with viscosity reducing agent (calibrated viscometers)
Assay type: physicochemical
Conditions: lowest of 2-8% agent in base formulation, 40° C.
Text: Now referring to Tables 11 and 12, the base formulations were made by mixing 1.6% perfume, 24% linear sodium undecyl sulfate (CAS# 1072-24-8) active, 6% lauramidopropyl betaine (CAS# 4292-10-8) active and 60.4% deionized water which leaves 8% unfilled for the addition of a viscosity reducing agent (the balance being filled in by distilled water). For all compositions, the surfactant, water and additives including viscosity reducing agents were expected to be in a single phase.
The agents from Tables 11 and 12 were added to the base formulation at a percentage of 2%, 4%, 6%, and 8% into the above surfactant solution. The subsequent formulations were vortexed and put into oven at 60° C. overnight to form homogeneous solution. The viscosities of the formulations were measured with calibrated viscometers (Size 200/350/450) from Cannon Instrument Company (2139 High Tech Road, State College, Pa., USA, 16803).
After the equilibration, the formulations were drawn to reach the starting mark with a rubber suction bulb and the flow time between the starting mark and end mark was recorded for calculation. Each formulation was measured three times to calculate average and standard deviation. Between samples, viscometer was cleaned with water and acetone to rinse off residual.
Viscosity values in Table 11 and Table 12 were calculated based on the equation:
Viscosity (mm^2/s. (cSt))=Time (s)*Constant (mm^2/s^2. (cSt/s))
The time in the above equation is the flow time recorded in the experiment and the constant numbers for each calibrated viscometer were obtained from the manuals.

SMILES	Lowest viscosity achieved (cSt)
CCC(=O)O[C@@H]1C[C@H]2CC[C@]1(C)C2(C)C (racemic) [Iso Bornyl Propionate]	463
CCCCCCCC(OC)OC [1,1-Dimethoxyoctane]	308
CC(C)CC=C(C=O)C(C)C [2-Isopropyl-5-methyl-2-hexenal]	332
CC(=O)OCCC(C)CCCC(C)C (stereo not shown) [3,7-Dimethyloctyl Acetate]	446
CCC(CC(C)CC)=NO (stereo not shown) [5-Methyl-3-Heptanone Oxime]	246
CCCCOC(=O)c1ccccc1O [Butyl Salicylate]	368
CC12CCC(CC1=O)C2(C)C (stereo not shown) [Camphor Gum]	127
CC(=O)OCCC(C)CCC=C(C)C (stereo not shown) [Citronellyl Acetate]	363
CCC(=O)OC1CC2CC1C1CC=CC21 (stereo not shown) [Cyclaprop]	404
CCCCCCC1C(=O)CCC1C(=O)OC (stereo not shown) [Dihyro Iso Jasmonate]	119
C=C(C)[C@H]1CC=C(C)CC1 [Dipentene]	35
CCO [Ethanol]	29
CC12CCC(CC1)C(C)(C)O2 [Eucalyptol]	203
CC(C)=CCC/C(C)=C/COC(=O)Cc1ccccc1 [Geranyl Phenyl Acetate]	34
CCCCCCCCCCCCCCCC [Hexadecane]	18
CC(CC=O)CCCC(C)(C)O (stereo not shown) [Hydroxycitronellal]	34
CC(C)COC(=O)c1ccccc1O [Iso Butyl Salicylate]	409
CCCCCCCCCCCCCC(=O)OC(C)C [Iso Propyl Myristate]	30
CC(C)CCOC(=O)c1ccccc1O [Isoamyl Salicylate]	193
CCCCCC(=O)OCC(C)C [Isobutyl Hexanoate]	109
C=C(C)[C@H]1CC=C(C)CC1 [Limonene]	86
C=CC(C)(CCC=C(C)C)OC(=O)C(C)C (stereo not shown) [Linalyl Iso Butyrate]	38
COC(C)(C)C1CC=C(C)CC1 (stereo not shown) [Orange Flower Ether]	419
CC(=O)CCc1ccc(O)cc1 [Raspberry Ketone]	33
CCOC(=O)CC(O)(CC(=O)OCC)C(=O)OCC [Triethyl Citrate]	41
CCCCCC1(C)CCC(C)(C)C1=O (stereo not shown) [Veloutone]	47
CC1=CC=C(C(C)C)CC1 [alpha-Terpinene]	42
CC1=CCC(C(C)C)=CC1 [gamma-Terpinene]	32

From patent US20180353398A1, “HAIR CARE REGIMEN USING NA AEROSOL FOAM CONCENTRATED CONDITIONER” (The Procter & Gamble Company, priority 2015, published 2018)
